Among the data in patent US8552032B2, “Bicyclic derivatives useful as inhibitors of DPP-1” (Janssen Pharmaceutica NV, priority 2009, dated 2013) are IC50 values, retold here.

Some results are limits rather than exact numbers.

T1 sequence (P53634 25-463): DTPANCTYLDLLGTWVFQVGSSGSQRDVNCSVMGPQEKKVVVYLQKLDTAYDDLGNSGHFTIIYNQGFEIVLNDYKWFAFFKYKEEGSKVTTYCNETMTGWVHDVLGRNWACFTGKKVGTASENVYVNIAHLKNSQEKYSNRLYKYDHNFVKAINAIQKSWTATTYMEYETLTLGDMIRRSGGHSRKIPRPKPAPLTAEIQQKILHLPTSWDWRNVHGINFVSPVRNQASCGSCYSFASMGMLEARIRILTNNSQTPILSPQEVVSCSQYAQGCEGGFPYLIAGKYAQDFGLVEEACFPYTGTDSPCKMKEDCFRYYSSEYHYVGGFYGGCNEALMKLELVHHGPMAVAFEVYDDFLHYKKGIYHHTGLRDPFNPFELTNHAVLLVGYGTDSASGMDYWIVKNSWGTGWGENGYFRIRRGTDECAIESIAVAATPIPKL

The assay addresses T1, recombinant human DPP-1 (Cathepsin C) (Homo sapiens, UniProt P53634).
T1 construct: made in house
Description: DPP-1 Inhibition Assay (in vitro), fluorogenic substrate GR-AMC. Format: biochemical. Particulars: 0.15 nM DPP-1, 10 uM GR-AMC, pH 7.0, room temperature; average value where tested multiple times. On the procedure:
Test compounds were assessed for DPP-1 (Cathepsin C) inhibitory activity using a fluorogenic substrate, GR-AMC (Glycine-Arginine-amino-4-methylcoumarin, Bachem, 1-1215). The amount of amino-methylcoumarin released is proportional to the DPP-1 activity, and the reaction is monitored kinetically with a Molecular Devices plate reader using black 96-well plates.
All compounds were tested under room temperature conditions. The assay buffer consisted of 50 mM HEPES, pH 7.0, 100 mM NaCl, 2 mM glutathione (GSH), and 0.002% TWEEN 20. GSH and TWEEN 20 were added to the buffer fresh daily. Just prior to use, an in-house preparation of recombinant human DPP-1 (240 μM stock, MW 49.6 kD) was diluted 600-fold in assay buffer containing fresh 2 mM dithiothreitol (DTT) to activate the enzyme, then diluted into assay buffer (without DTT) 133-fold for a DPP-1 working solution of 3 nM. Test compounds were diluted in DMSO for 20× their final assay concentrations.
Additions to a 96-well black Costar 3915 plates were as follows: 90 μL of 11 μM GR-AMC, 5 μL test compound (followed by mixing), and 5 μL 3 nM DPP1 to start the reaction. Fluorescent reactions were monitored kinetically at 360 nm excitation, 440 nm emission on a Molecular Devices Spectramax XPS reader. The Softmax Pro software of the reader determined the initial velocity of the selected data (the first 3-5 minutes of the reaction), and the best linear regression fit of the initial kinetic data. Final assay conditions were 0.15 nM DPP-1, 10 uM GR-AMC, 50 mM HEPES, pH 7.0, 100 mM NaCl, 2 mM GSH, 0.002% TWEEN 20, 1 uM DTT, 5.0% DMSO. Initial velocity rates were plotted vs. test compound concentration by use of a four-parameter logistics equation (nonlinear regression, sigmoidal dose-response (variable slope), with fixed Hill (1.0) using GraphPad Prism® software for determination of DPP-1 IC50. Within-run assay coefficient of variation (CV) was generally <10%; between-run CV <20%.
Representative compounds of the present invention were tested according to the procedure as described above, with results as listed in Table 12, below.
Turning to `CC[C@H](N)C(=O)NCCCc1cc2cc(C(=O)Nc3cc(OC)cc(OC)c3)ccc2o1` [Compound 94], the IC50 came out at 1500 nM. For `CC[C@H](N)C(=O)NCCCc1cc2cc(C(=O)Nc3cccnc3)ccc2o1` [Compound 52] the value was 4000 nM; for `CC[C@H](N)C(=O)N(C)CCCc1cc2cc(C(=O)Nc3ccc(OC)c(OC)c3)ccc2[nH]1` [Compound 107], 9000 nM; for `CC[C@H](N)C(=O)NCCc1nc2ccccc2n1C` [Compound 39], 43000 nM.

On to `COc1ccc(NC(=O)c2ccc3[nH]c(CCCNC(=O)[C@@H](N)Cc4nccs4)cc3c2)cc1OC` [Compound 117, (S)-2-(3-(2-amino-3-(thiazol-2-yl)propanamido)propyl)-N-(3,4-dimethoxyphenyl)-1H-indole-5-carboxamide], for which the IC50 worked out at 81 nM. As for `CC[C@H](N)C(=O)NCCCc1cc2cc(-c3cc(OC)cc(OC)c3)ccc2[nH]1` [Compound 96], the figure is 370 nM; as for `COc1ccc(-c2ccc3[nH]c(C4CCN(C(=O)[C@@H](N)Cc5ccsc5)CC4)cc3c2)cc1OC` [Compound 15], 2200 nM. As for `CC[C@H](N)C(=O)NCCCc1cc2cc(C(=O)O)ccc2o1` [Compound 74], the figure is greater than 10000 nM; as for `CC[C@H](N)C(=O)NCCCc1cc2cc(C(=O)Nc3cccc4cccnc34)ccc2o1` [Compound 66], 910 nM; as for `CC[C@H](N)C(=O)NCCCc1cc2cc(C(=O)Nc3ccc4[nH]cnc4c3)ccc2o1` [Compound 72], 2400 nM. As for `CC[C@H](N)C(=O)NCCCc1cc2cc(-c3ccc(C(F)(F)F)cc3)ccc2[nH]1` [Compound 102], the figure is 710 nM; as for `CC[C@H](N)C(=O)NCCCc1cc2cc(-c3ccccc3)ccc2[nH]1` [Compound 100], 520 nM; as for `CC[C@H](N)C(=O)NCCCc1cc2cc(-c3cccc(C(N)=O)c3)ccc2[nH]1` [Compound 103], 390 nM. In the case of `CC[C@H](N)C(=O)NCCCc1cc2cc(C(=O)Nc3ccc(OC)cc3)ccc2[nH]1` [Compound 77], the IC50 turned out to be 350 nM.

`CC[C@H](N)C(=O)NCCCc1cc2cc(Oc3ccc(OC)c(OC)c3)ccc2[nH]1` [Compound 99, (S)-2-amino-N-(3-(5-(3,4-dimethoxyphenoxy)-1H-indol-2-yl)propyl)butanamide]: the IC50 amounted to 420 nM. For `CC[C@H](N)C(=O)NCCCc1cc2cc(C(=O)Nc3ccccc3C(C)C)ccc2[nH]1` [Compound 89] the value was 1200 nM. As for `N[C@@H](Cc1cccs1)C(=O)NCCc1nc2ccccc2[nH]1` [Compound 37, (S)—N-(2-(1H-benzo[d]imidazol-2-yl)ethyl)-2-amino-3-(thiophen-2-yl)propanamide], the figure is 4250 nM; as for `COc1ccc(-c2ccc3[nH]c(C4CCN(C(=O)[C@@H](N)CC5CCC5)CC4)cc3c2)cc1OC` [Compound 12], 14000 nM; as for `CC[C@H](N)C(=O)NCCCc1cc2cc(C(=O)Nc3ccc(C(C)C)cc3)ccc2[nH]1` [Compound 80], 680 nM. As for `CC[C@H](N)C(=O)NCCCc1cc2cc(C(=O)Nc3ccc(C)c(C)c3)ccc2[nH]1` [Compound 83], the figure is 560 nM.

`CC[C@H](N)C(=O)NCCCc1cc2cc(C(=O)Nc3c(C)cccc3C)ccc2o1` [Compound 95]: the IC50 was 430 nM. As for `CC[C@H](N)C(=O)NCCCc1cc2cc(-c3ccc(OC(F)(F)F)cc3)ccc2[nH]1` [Compound 105], the figure is 860 nM; as for `N[C@@H](Cc1cccs1)C(=O)NCCCc1cc2ccccc2o1` [Compound 56], 1100 nM.

Regarding `CC[C@H](N)C(=O)NCCCc1cc2cc(C(=O)Nc3cccc(C)c3)ccc2[nH]1` [Compound 93], the IC50 amounted to 920 nM. As for `CC[C@H](N)C(=O)NCCCc1cc2cc(C(=O)Nc3ccccc3F)ccc2[nH]1` [Compound 87], the figure is 2600 nM; as for `CC[C@H](N)C(=O)NCCCc1cc2cc(C(=O)Nc3cccc4cnccc34)ccc2o1` [Compound 65], 480 nM. As for `COc1ccc(-c2ccc3[nH]c(C4CCN(C(=O)[C@@H](N)Cn5cccn5)CC4)cc3c2)cc1OC` [Compound 11], the figure is roughly 12000 nM; as for `CC[C@H](N)C(=O)NCCCc1cc2cc(-c3ccc(OC)cc3)ccc2[nH]1` [Compound 104], 340 nM; as for `CC[C@H](N)C(=O)NCCCc1cc2cc(-c3ccc(C(N)=O)cc3)ccc2[nH]1` [Compound 111], 690 nM. Regarding `CC[C@H](N)C(=O)NCCCc1cc2cc(C(=O)Nc3cccc4ccccc34)ccc2o1` [Compound 54], the IC50 stood at 850 nM. As for `COc1ccc(-c2ccc3[nH]c(C4CCN(C(=O)C(N)c5cccs5)CC4)cc3c2)cc1OC` (centres unmarked) [Compound 28], the figure is greater than 20000 nM; as for `CC[C@H](NC(=O)OC(C)(C)C)C(=O)NCCCc1cc2cc(C(=O)O)ccc2[nH]1` [Compound 47, (S)-2-(3-(2-(tert-butoxycarbonylamino)butanamido)propyl)-1H-indole-5-carboxylic acid], 53000 nM. As to `COc1ccc(NC(=O)c2ccc3[nH]c(CCCNC(=O)[C@@H](N)Cc4cccs4)cc3c2)cc1OC` [Compound 97], the IC50 is 24 nM. Turning to `CC[C@H](N)C(=O)NCCCc1cc2cc(-c3cc(C(F)(F)F)cc(C(F)(F)F)c3)ccc2[nH]1` [Compound 109], the IC50 is 760 nM.

Take `N[C@@H](Cc1cccs1)C(=O)N1CCC(c2cc3cc(-c4ccc5c(c4)OCO5)ccc3[nH]2)CC1` [Compound 6]: the IC50 is 260 nM. As for `N[C@@H](Cc1cccs1)C(=O)N1CCC(c2cc3cc(-c4cccnc4)ccc3[nH]2)CC1` [Compound 23], the figure is 110 nM; as for `NC(=O)c1cccc(-c2ccc3[nH]c(C4CCN(C(=O)[C@@H](N)Cc5cccs5)CC4)nc3c2)c1` [Compound 19], 240 nM; as for `NC(=O)c1cccc(-c2ccc3[nH]c(C4CCN(C(=O)[C@@H](N)Cc5cccs5)CC4)cc3c2)c1` [Compound 5], 300 nM. For `CC[C@H](N)C(=O)NCCCc1cc2cc(C(=O)Nc3nc[nH]n3)ccc2[nH]1` [Compound 48] the value was 6300 nM. Turning to `CC[C@H](N)C(=O)NCCCc1cc2ccccc2n1C` [Compound 41, (S)-2-amino-N-(3-(1-methyl-1H-indol-2-yl)propyl)butanamide], the IC50 amounted to 6300 nM.

Take `CC[C@H](N)C(=O)NCCCc1cc2ccccc2[nH]1` [Compound 40, (S)—N-(3-(1H-indol-2-yl)propyl)-2-aminobutanamide]: the IC50 amounted to 2900 nM. For the molecule `N[C@@H](Cc1cccs1)C(=O)NCCc1cc2ccccc2o1` [Compound 35], the IC50 was 1300 nM. On to `CC[C@H](N)C(=O)NCCCc1cc2cc(C(=O)Nc3cccc4c3ncn4C)ccc2o1` [Compound 59], for which the IC50 worked out at 1400 nM.

`CC[C@H](N)C(=O)NCCCc1cc2cc(C(=O)Nc3cccc(F)c3)ccc2[nH]1` [Compound 90]: the IC50 was determined as 900 nM. For `CC[C@H](N)C(=O)NCCCc1cc2cc(C(=O)N3CCCc4ccccc43)ccc2o1` [Compound 71] the value was 2600 nM; for `COc1ccc(-c2ccc3[nH]c(C4CCN(C(=O)[C@@H](N)Cc5ccc(Cl)s5)CC4)cc3c2)cc1OC` [Compound 24], 5800 nM. Take `CC[C@H](N)C(=O)NCCCc1cc2cc([N+](=O)[O-])ccc2o1` [Compound 49]: the IC50 was 19000 nM.

In general, IC50 refers to the concentration at which inhibition is half-maximal.
